The text below walks through data of US9642874B2, “Compositions of selenoorganic compounds and methods of use thereof” (Alltech, Inc., priority 2014, dated 2017).

For assay [1], the system named is Igf1r. The experiment in a line: Igf1r mRNA expression (QRT-PCR) in AML-12 cells. It counts as cell-based, mouse. The following applies: insulin alone, 6 hours, without 8-CPT/Dex. The protocol: For RNA analysis of insulin receptor (Insr), insulin like growth factor receptor (Igf1r), and Glucose-6-Phosphatase (G6pc), AML-12 cells were amplified in ITS, Dex and FBS-containing DMEM/F12 media, and cultured on 24-well (6.7×10^4 cells/well) plates in 10% FBS ITS-free DMEM/F12 media with or without Dex overnight. These cells were treated with control (water) or various compounds (diluted in 10% FBS ITS-free DMEM/F12 media with or without Dex) for 6 hours, 24 hours, or 48 hours.
In some experiments, the AML-12 cells were washed twice with PBS after the compound treatments for 24 hours, and then incubated with selenium compounds (150 or 300 ppb of each compound) in the presence or absence of insulin (10 or 100 nM), 0.1 mM 8-CPT (Sigma), or 0.5 μM Dex in serum-free, glucose/phenol red-free DMEM media supplemented with 20 mM lactose and 2 mM pyruvate, and 15 mM HEPES (glucose-production media) for another 6 hours. After treatments, cell media were collected and subjected to glucose assays using Abcam glucose assay kit according to the manufacturer's protocol. […]
Total RNA from these cells was isolated using Trizol (Invitrogen) according to the manufacturer's protocol, and then incubated with DNase I to remove any potential contaminated genomic DNA. […] Three to six samples were analyzed in each treatment group. […]

Assay [2] deals with G6pc. Briefly: G6pc mRNA expression (QRT-PCR) in primary mouse hepatocytes. The class given is cell-based. The procedure: The overnight-acclimated hepatocytes were washed twice with PBS (to remove any residual FBS and other additives in the TRL hepatocyte maintenance medium, pretreated with control (water) or selenium Compounds CDE (150 or 300 ppb of each selenium compound) in DMEM/F12 media supplemented with 10% fetal bovine serum (FBS) for 24 hr. These cells were then washed twice with PBS and incubated with the same dose of selenium Compounds CDE (150 or 300 ppb) in the presence or absence of insulin (10 or 100 nM, Sigma), 0.1 mM 8-CPT (Sigma) or 0.5 μM Dex (Sigma) in serum-free and glucose-free DMEM media (Invitrogen) supplemented with 20 mM lactose (Sigma) and 2 mM pyruvate (Sigma) and 15 mM HEPES (Sigma) for another 6 hours. After treatments, cell media were collected and subjected to glucose assay and toxicological studies of lactate dehydrogenase (LDH) and cells were collected for RNA and protein analysis.
Total RNA from these cells was isolated using Trizol (Invitrogen) according to the Manufacturer's protocol and then incubated with DNase I to remove any potential contaminated genomic DNA. Then RNA samples were subjected to real-time PCR analysis using the Applied-Bioscience's RT kit and predesigned Taqman probes (Invitrogen), as described previously (Lan et al EMBO J 2003). Three to four samples were analyzed in each treatment group. […]

“insulin: insulin (10 or 100 nM, Sigma) used as comparator and cotreatment”: in assay [1], the Igf1r expression entry is “did not increase”. Moreover, in assay [2] (insulin 10 and 100 nM, vs 8-CPT/Dex group), the “8-CPT/Dex-induced G6pc expression” value is reported as “significantly decreased 8-CPT/Dex-induced G6pc expression”. Besides, in assay [2] (insulin alone (10 and 100 nM), 6 hours), the G6pc expression entry is given as “significantly inhibited G6pc expression”.
